Reference: patent US20230295118A1 (EnhancedBio Inc., priority 2022, published 2023)
pIC50: −log10 of the molar value.

Legend:
Format in all cases: cell-based
[1] = test system: mantle cell lymphoma cell (Mino or JeKo-1); assay: Antiproliferative effect, MTS cell viability assay; details: 72 h, mantle cell lymphoma cell (Mino or JeKo-1), MTS assay, read-out: IC50 (anti-proliferation)
In short: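 MTS read-out (formazan absorbance at 490 nm) after 72 h exposure of Mino cells to 0–1 μM compound (0.0001, 0.001, 0.01, 0.1, 1 μM). Palbociclib and abemaciclib served as positive controls.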

CDK4 = target: T1, CDK4 (Homo sapiens, UniProt P11802); assay: CDK4 degradation (DC50, Dmax)
T1 construct: endogenous in cells

CDK6 = target: T2, CDK6 (Homo sapiens, UniProt Q00534); assay: CDK6 degradation (DC50, Dmax)
T2 construct: endogenous in cells
T2 sequence (Q00534 whole entry): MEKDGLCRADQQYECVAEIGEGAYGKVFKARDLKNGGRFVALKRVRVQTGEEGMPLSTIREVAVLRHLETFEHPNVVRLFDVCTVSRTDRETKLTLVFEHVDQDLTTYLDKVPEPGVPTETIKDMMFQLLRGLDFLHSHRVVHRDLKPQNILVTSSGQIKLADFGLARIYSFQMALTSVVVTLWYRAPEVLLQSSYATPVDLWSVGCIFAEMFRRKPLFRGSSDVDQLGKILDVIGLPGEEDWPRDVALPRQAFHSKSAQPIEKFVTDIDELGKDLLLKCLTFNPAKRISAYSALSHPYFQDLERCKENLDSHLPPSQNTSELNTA

T1 sequence (P11802 whole entry): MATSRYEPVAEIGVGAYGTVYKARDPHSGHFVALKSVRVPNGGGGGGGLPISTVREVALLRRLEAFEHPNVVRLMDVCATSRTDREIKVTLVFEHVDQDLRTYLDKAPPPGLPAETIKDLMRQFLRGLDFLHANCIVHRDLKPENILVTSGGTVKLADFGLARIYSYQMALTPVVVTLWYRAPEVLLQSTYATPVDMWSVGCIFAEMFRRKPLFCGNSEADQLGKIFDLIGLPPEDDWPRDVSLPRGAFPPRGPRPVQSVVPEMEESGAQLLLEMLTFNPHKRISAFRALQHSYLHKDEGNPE

SMILES	pIC50 [1]	DC50 (CDK4) [nM]	Dmax (CDK4) [%]	DC50 (CDK6) [nM]	Dmax (CDK6) [%]
CC(=O)c1c(C)c2cnc(Nc3ccc(C4CCN(C(=O)C5CN(c6ccc7c(c6)C(=O)N(C6CCC(=O)NC6=O)C7=O)C5)CC4)cn3)nc2n(C2CCCC2)c1=O (centres unmarked) [Compound 129, 5-(3-(4-(6-((6-acetyl-8-cyclopentyl-5-methyl-7-oxo-7,8-dihydropyrido[2,3-d]pyrimidin-2-yl)amino)pyridin-3-yl)piperidine-1-carbonyl)azetidin-1-yl)-2-(2,6-dioxopiperidin-3-yl)isoindoline-1,3-dione]	6.70 to 7.30	50 to 200	> 80	50 to 200	> 80
CC(=O)c1c(C)c2cnc(Nc3ccc(C4CCN(C(=O)C5CN(c6ccc(C(=O)NC7CCC(=O)NC7=O)cc6)C5)CC4)cn3)nc2n(C2CCCC2)c1=O (centres unmarked) [Compound 131, 4-(3-(4-(6-((6-acetyl-8-cyclopentyl-5-methyl-7-oxo-7,8-dihydropyrido[2,3-d]pyrimidin-2-yl)amino)pyridin-3-yl)piperidine-1-carbonyl)azetidin-1-yl)-N-(2,6-dioxopiperidin-3-yl)benzamide]	6.70 to 7.30	50 to 200	> 60	50 to 200	> 60
CC(=O)c1c(C)c2cnc(Nc3ccc(C4CCN(C(=O)C5CN(c6ccc(NC7CCC(=O)NC7=O)cc6)C5)CC4)cn3)nc2n(C2CCCC2)c1=O (centres unmarked) [Compound 132, 3-((4-(3-(4-(6-((6-acetyl-8-cyclopentyl-5-methyl-7-oxo-7,8-dibydropyrido[2,3-d]pyrimidin-2-yl)amino)pyridin-3-yl)piperidine-1-carbonyl)azetidin-1-yl)phenyl)amino) piperidine-2,6-dione]	> 7.30	50 to 200	> 80	< 50	> 80
Cc1nc2c(F)cc(-c3nc(Nc4ccc(CN5CCN(CC6CN(c7ccc(C(=O)NC8CCC(=O)NC8=O)cc7)C6)CC5)cn4)ncc3F)cc2n1C(C)C (centres unmarked) [Compound 133, N-(2,6-dioxopiperidin-3-yl)-4-(3-((4-((6-((5-fluoro-4-4-fluoro-1-isopropyl-2-methyl-1H-benzo[d]imidazol-6-yl)pyrimidin-2-ylamino)pyridin-3-yl)methyl)piperazin-1-yl)methyl)azetidin-1-yl)benzamide]	> 7.30	< 50	> 80	< 50	> 80

More lines, now with the values ahead:

pIC50 [1]	DC50 (CDK4) [nM]	Dmax (CDK4) [%]	DC50 (CDK6) [nM]	Dmax (CDK6) [%]	SMILES
> 7.30	50 to 200	> 80	50 to 200	> 80	CC(=O)c1c(C)c2cnc(Nc3ccc(C4CCN(CC5CN(c6ccc(C(=O)NC7CCC(=O)NC7=O)cc6)C5)CC4)cn3)nc2n(C2CCCC2)c1=O (centres unmarked) [Compound 127, 4-(3-((4-(6-((6-acetyl-8-cyclopentyl-5-methyl-7-oxo-7,8-dihydropyrido[2,3-d]pyrimidin-2-yl)amino)pyridin-3-yl)piperidin-1-y)methyl)azetidin-1-yl)-N-(2,6-dioxopiperidin-3-yl)benzamide]
> 7.30	< 50	> 80	< 50	> 80	CC(=O)c1c(C)c2cnc(Nc3ccc(C4CCN(CC5CN(c6ccc(NC7CCC(=O)NC7=O)cc6)C5)CC4)cn3)nc2n(C2CCCC2)c1=O (centres unmarked) [Compound 128, 3-((4-(3-((4-(6-((6-acetyl-8-cyclopentyl-5-methyl-7-oxo-7,8-dihydropyrido[2,3-d]pyrimidin-2-yl)amino)pyridin-3-yl)piperidin-1-yl)methyl)azetidin-1-yl)phenyl)amino) piperidine-2,6-dione]
> 7.30	50 to 200	> 80	< 50	> 60	CC(=O)c1c(C)c2cnc(Nc3ccc(C4CCN(C(=O)C5CN(c6ccc7c(c6)CN(C6CCC(=O)NC6=O)C7=O)C5)CC4)cn3)nc2n(C2CCCC2)c1=O (centres unmarked) [Compound 130, 3-(5-(3-(4-(6-((6-acetyl-8-cyclopentyl-5-methyl-7-oxo-7,8-dihydropyrido[2,3-d]pyrimidin-2-yl)amino)pyridin-3-yl)piperidine-1-carbonyl)azetidin-1-yl)-1-oxoisoindolin-2-yl)piperidine-2,6-dione]
